Laboratory results reported in patent US11046716B2, “Beta-lactamase inhibitors” (priority 2015, dated 2021).

Columns and labels:
[1] = test system: E. cloacae expressing the Class C P99; experiment: Broth microdilution MIC assay with ceftazidime, E. cloacae P99; format: cell-based; conditions: Fixed CAZ (ceftazidime) 4 μg/mL; E. cl. 144200 p99 AmpC
Procedure, shortened: (§1)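 Test compound was titrated 2-fold from 16 to 0.125 μg/mL in cation-adjusted Mueller Hinton broth against a fixed 4 μg/ml β-lactam overlay. Plates were inoculated per CLSI broth microdilution, incubated 16-20 hours at 37° C, and the MIC of the test compound was read visually.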

[2] = biological target: T1, KPC-2 (Klebsiella pneumoniae, UniProt Q9F663); experiment: β-lactamase enzyme inhibition assay, KPC-2 (imipenem substrate); format: biochemical; conditions: Class A; imipenem substrate, 300 nm; read-out: KPC-2
T1 construct: made in house; host or cells: E. coli BL21(DE3)
Procedure, shortened: (§2)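 Native untagged β-lactamases were expressed in E. coli BL21(DE3), then purified by cation exchange and gel filtration. Enzyme was preincubated with inhibitor for 15 min at 37 °C before substrate was added. Imipenem (A300) served KPC-2 and cefotaxime (A260) served SHV-5. IC50 was taken from initial hydrolysis rates relative to no-inhibitor controls.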

[3] = test system: P. aeruginosa expressing the Class B carbapenemase VIM-2; experiment: Broth microdilution MIC assay with meropenem, P. aeruginosa VIM-2; format: cell-based; conditions: Fixed Mero (meropenem) 4 μg/mL; P. aerug. 2775 VIM-2
Procedure, shortened: as §1

[4] = biological target: T2, VIM-2 (Escherichia coli, UniProt Q5U7L7); experiment: β-lactamase enzyme inhibition assay, VIM-2 (nitrocefin substrate); format: biochemical; conditions: Class B; nitrocefin substrate, 486 nm; read-out: VIM-2
T2 construct: made in house; host or cells: E. coli BL21(DE3)
Procedure, shortened: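 Purified VIM-2 (Q sepharose anion exchange, Hepes pH 7.5, >90% pure) was preincubated with inhibitor at 37 °C for 15 min, then nitrocefin added at 100 μM final. Absorbance at 486 nm was followed for 10 min; IC50 was taken from maximum hydrolysis rates relative to inhibitor-free controls.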

[5] = test system: E. coli expressing the Class A Extended Spectrum Beta-Lactamase (ESBL) CTX-M-15; experiment: Broth microdilution MIC assay with ceftazidime, E. coli CTX-M-15; format: cell-based; conditions: Fixed CAZ (ceftazidime) 4 μg/mL; E. coli ESBL4 CTX-M-15
Procedure, shortened: as §1

[6] = test system: K. pneumoniae producing the Class D carbapenemase OXA-48; experiment: Broth microdilution MIC assay with meropenem, K. pneumoniae OXA-48; format: cell-based; conditions: Fixed Mero (meropenem) 4 μg/mL; K. p. 11978 OXA-48
Procedure, shortened: as §1

[7] = test system: K. pneumoniae expressing the class A carbapenemase KPC-2 and the class B carbapenemase VIM-4; experiment: Broth microdilution MIC assay with meropenem, K. pneumoniae KPC-2 and VIM-4; format: cell-based; conditions: Fixed Mero (meropenem) 4 μg/mL; K. p. A-1797 KPC-2 VIM-4
Procedure, shortened: as §1

[8] = test system: K. pneumoniae expressing the Class A carbapenemase KPC-2; experiment: Broth microdilution MIC assay with meropenem, K. pneumoniae KPC-2; format: cell-based; conditions: Fixed Mero (meropenem) 4 μg/mL; K. p. 156319 KPC-3
Procedure, shortened: as §1

[9] = biological target: T3, SHV-5 (Klebsiella pneumoniae, UniProt P0A3M1); experiment: β-lactamase enzyme inhibition assay, SHV-5 (cefotaxime substrate); format: biochemical
T3 construct: made in house; host or cells: E. coli BL21(DE3)
Procedure, shortened: as §2

[10] = biological target: OXA-48 (UniProt Q6XEC0); experiment: β-lactamase enzyme inhibition assay, Class D oxacillinase; format: biochemical; conditions: read-out: OXA-48
[11] = biological target: T4, AmpC (Enterobacter cloacae, UniProt P05364); experiment: β-lactamase enzyme inhibition assay, p99 AmpC (nitrocefin substrate); format: biochemical
T4 construct: made in house; host or cells: E. coli BL21(DE3)
Procedure, shortened: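 Native untagged β-lactamases were expressed in E. coli BL21(DE3), then purified by cation exchange and gel filtration. Enzyme was preincubated with inhibitor for 15 min at 37 °C before substrate was added. IC50 was taken from initial hydrolysis rates relative to no-inhibitor controls.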

T4 sequence (P05364 21-381): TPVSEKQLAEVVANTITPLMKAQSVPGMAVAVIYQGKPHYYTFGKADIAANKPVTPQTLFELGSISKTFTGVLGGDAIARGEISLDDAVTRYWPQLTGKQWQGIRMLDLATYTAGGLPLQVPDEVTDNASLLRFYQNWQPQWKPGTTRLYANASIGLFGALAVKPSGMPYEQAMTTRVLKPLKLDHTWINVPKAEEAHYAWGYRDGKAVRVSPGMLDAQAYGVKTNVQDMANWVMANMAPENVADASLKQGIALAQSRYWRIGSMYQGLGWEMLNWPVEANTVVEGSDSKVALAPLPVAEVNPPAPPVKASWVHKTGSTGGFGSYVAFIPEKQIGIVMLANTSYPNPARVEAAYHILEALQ
T1 sequence (Q9F663 25-293, looked up): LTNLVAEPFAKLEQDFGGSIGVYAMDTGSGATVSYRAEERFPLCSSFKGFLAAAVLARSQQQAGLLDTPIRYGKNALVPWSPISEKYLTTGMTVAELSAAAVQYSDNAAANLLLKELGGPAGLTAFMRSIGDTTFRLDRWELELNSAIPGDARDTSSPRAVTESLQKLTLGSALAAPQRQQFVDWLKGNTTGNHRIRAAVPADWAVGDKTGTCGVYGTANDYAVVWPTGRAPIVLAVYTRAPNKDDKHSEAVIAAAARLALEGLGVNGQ
T3 sequence (P0A3M1 22-286): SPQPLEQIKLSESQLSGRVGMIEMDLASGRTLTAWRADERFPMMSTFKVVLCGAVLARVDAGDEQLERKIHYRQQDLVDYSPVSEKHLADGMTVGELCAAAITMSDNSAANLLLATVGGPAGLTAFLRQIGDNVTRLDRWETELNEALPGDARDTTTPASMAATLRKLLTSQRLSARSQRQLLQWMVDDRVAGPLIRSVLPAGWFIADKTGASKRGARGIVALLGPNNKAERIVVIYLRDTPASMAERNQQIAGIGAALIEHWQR

| Structure (SMILES) | MIC (μg/mL) of Exemplary Compounds in presence of fixed β-lactams: E. cl. 144200 p99 AmpC [1] | IC50 [2] | MIC (μg/mL) of Exemplary Compounds in presence of fixed β-lactams: P. aerug. 2775 VIM-2 [3] | IC50 [4] | MIC (μg/mL) of Exemplary Compounds in presence of fixed β-lactams: E. coli ESBL4 CTX-M-15 [5] | MIC (μg/mL) of Exemplary Compounds in presence of fixed β-lactams: K. p. 11978 OXA-48 [6] | MIC (μg/mL) of Exemplary Compounds in presence of fixed β-lactams: K. p. A-1797 KPC-2 VIM-4 [7] | MIC (μg/mL) of Exemplary Compounds in presence of fixed β-lactams: K. p. 156319 KPC-3 [8] | IC50 [9] | IC50 [10] | IC50 [11] |
| --- | --- | --- | --- | --- | --- | --- | --- | --- | --- | --- | --- |
| NCc1cn(CCC(=O)N[C@H]2Cc3cccc(C(=O)O)c3OB2O)nn1 [Example 30, (R)-3-(3-(4-(aminomethyl)-1H-1,2,3-triazol-1-yl)propanamido)-2-hydroxy-3,4-dihydro-2H-benzo[e][1,2]oxaborinine-8-carboxylic acid] | C (C represents an MIC of <1 μg/mL) | < 100 nM | B (B represents an MIC between 1 and 16 μg/mL inclusive) | 100 to 1000 nM | C (C represents an MIC of <1 μg/mL) | B (B represents an MIC between 1 and 16 μg/mL inclusive) | B (B represents an MIC between 1 and 16 μg/mL inclusive) | C (C represents an MIC of <1 μg/mL) | < 100 nM | 100 to 1000 nM | < 100 nM |
| COc1c(C[C@H](NC(=O)Cn2cc(CN)nn2)B(O)O)cccc1C(=O)O [Example 31, (R)-3-(2-(2-(4-(aminomethyl)-1H-1,2,3-triazol-1-yl)acetamido)-2-boronoethyl)-2-methoxybenzoic acid] | C (C represents an MIC of <1 μg/mL) | < 100 nM | C (C represents an MIC of <1 μg/mL) | 100 to 1000 nM | B (B represents an MIC between 1 and 16 μg/mL inclusive) | A (A represents an MIC>16 μg/mL) | B (B represents an MIC between 1 and 16 μg/mL inclusive) | B (B represents an MIC between 1 and 16 μg/mL inclusive) | < 100 nM | 1000 to 10000 nM | 100 to 1000 nM |
| O=C(Cn1nnc(CN2CCOCC2)c1CN1CCOCC1)N[C@H]1Cc2cccc(C(=O)O)c2OB1O [Example 32, (R)-3-(2-(4,5-bis(morpholinomethyl)-1H-1,2,3-triazol-1-yl)acetamido)-2-hydroxy-3,4-dihydro-2H-benzo[e][1,2]oxaborinine-8-carboxylic acid] | A (A represents an MIC>16 μg/mL) | < 100 nM | B (B represents an MIC between 1 and 16 μg/mL inclusive) | 100 to 1000 nM | B (B represents an MIC between 1 and 16 μg/mL inclusive) | A (A represents an MIC>16 μg/mL) | A (A represents an MIC>16 μg/mL) | B (B represents an MIC between 1 and 16 μg/mL inclusive) | < 100 nM | 100 to 1000 nM | < 100 nM |
| CC(C)(C(=O)N[C@H]1Cc2cccc(C(=O)O)c2OB1O)n1cc(CN)nn1 [Example 33, (R)-3-(2-(4-(aminomethyl)-1H-1,2,3-triazol-1-yl)-2-methylpropanamido)-2-hydroxy-3,4-dihydro-2H-benzo[e][1,2]oxaborinine-8-carboxylic acid] | C (C represents an MIC of <1 μg/mL) | < 100 nM | C (C represents an MIC of <1 μg/mL) | < 100 nM | C (C represents an MIC of <1 μg/mL) | B (B represents an MIC between 1 and 16 μg/mL inclusive) | C (C represents an MIC of <1 μg/mL) | B (B represents an MIC between 1 and 16 μg/mL inclusive) | < 100 nM | < 100 nM | < 100 nM |
